This test relates to acetic acid-induced colitis. The test can be described thus: acetic acid-induced colitis in rats: oxidative stress markers (PCC, TBARS) in colonic tissue. The conditions noted are these: for activity compared with 5-ASA and lipoic acid: acetic acid-induced rat colitis; for TBARS (thiobarbituric acid reactive substrates), Pre-treatment / PCC (tissue protein carbonyl content), Pre-treatment: administered 10 minutes before induction of colitis; for TBARS (thiobarbituric acid reactive substrates), Pre-treatment / PCC (tissue protein carbonyl content), Pre-treatment / TBARS (thiobarbituric acid reactive substrates), Post-treatment / PCC (tissue protein carbonyl content), Post-treatment: 5-ASA 100 mg/kg, LA 50 mg/kg, compounds 1 and 7 50 mg/kg, sacrificed 24 hr post induction; for TBARS (thiobarbituric acid reactive substrates), Pre-treatment: control 18 ± 4, AA alone 187 ± 14; for PCC (tissue protein carbonyl content), Pre-treatment: control 261 ± 27, AA alone 1687 ± 98; for TBARS (thiobarbituric acid reactive substrates), Post-treatment / PCC (tissue protein carbonyl content), Post-treatment: administered 30 minutes after induction of colitis; for TBARS (thiobarbituric acid reactive substrates), Post-treatment: control 15 ± 3, AA alone 163 ± 14; for PCC (tissue protein carbonyl content), Post-treatment: control 273 ± 21, AA alone 1587 ± 95; for treated rats compared with control healthy rats (PCC, TBARS): results of the table, P<0.05.

The text below walks through data of patent US20060264408A1, “Sod minic multifunctional compounds for treating inflammatory bowel disease” (priority 2003, published 2006).

Turning to `O=C(O)CCCC[C@@H]1CCSS1` (racemic) [lipoic acid, reference compound], the “activity compared with 5-ASA and lipoic acid” value is on record as “as effective as 5-ASA”; the “TBARS (thiobarbituric acid reactive substrates), Pre-treatment” value (“TBARS … Pre-treatment” below) was determined as 73 ± 8; the “PCC (tissue protein carbonyl content), Pre-treatment” value (“PCC … Pre-treatment” for short) is 867 ± 73; the “TBARS (thiobarbituric acid reactive substrates), Post-treatment” value (“TBARS … Post-treatment” below) was found to be 64 ± 8. For the same compound, the “PCC (tissue protein carbonyl content), Post-treatment” value (from here on “PCC … Post-treatment”) was found to be 713 ± 31.
For the compound `Cc1cc(O)c(C(=O)O)cc1/N=N\c1ccc2c(c1)C(C)(C)N([O])C2(C)C` [Compound 1], the “activity compared with 5-ASA and lipoic acid” value is given as “more active than either of LA or ASA used separately or even simultaneously”; the “TBARS … Pre-treatment” value is reported as 27 ± 4; the “PCC … Pre-treatment” value was found to be 293 ± 33; the “TBARS … Post-treatment” value turned out to be 18 ± 3. Besides, the “PCC … Post-treatment” value is given as 278 ± 32 and the “treated rats compared with control healthy rats (PCC, TBARS)” value is listed as “statistically indifferent from control healthy rats”.
Turning to `Nc1ccc(O)c(C(=O)O)c1` [Compound 5-ASA, 5-aminosalicylic acid, reference compound], the “TBARS … Pre-treatment” value is 89 ± 9; the “PCC … Pre-treatment” value turned out to be 959 ± 48; the “TBARS … Post-treatment” value came to 74 ± 9; the “PCC … Post-treatment” value came to 873 ± 79.
For the compound `O=C(O)c1cc2[nH]c(CCCCC3CCSS3)nc2cc1O` (stereo not drawn) [Compound 7], the “activity compared with 5-ASA and lipoic acid” value is reported as “more active than either of LA or ASA used separately or even simultaneously”; the “TBARS … Pre-treatment” value stood at 21 ± 3; the “PCC … Pre-treatment” value is given as 284 ± 26; the “TBARS … Post-treatment” value turned out to be 19 ± 2. For the same compound, the “PCC … Post-treatment” value is reported as 269 ± 28 and the “treated rats compared with control healthy rats (PCC, TBARS)” value is on record as “statistically indifferent from control healthy rats”.
